Test results from PubChem BioAssay (NCI).
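Interpolation was linear, between the two tested concentrations surrounding the appropriate level; five concentrations were tested over 48 hours in 96-well plates. TGI is the concentration that stops growth completely.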

How the values were obtained:
Assay in all cases: NCI-60 cell line screen, 48 h
786-0 renal = tested on: 786-0 renal
A498 renal = tested on: A498 renal
A549 NSCLC = tested on: A549 NSCLC
ACHN renal = tested on: ACHN renal
BT-549 breast = tested on: BT-549 breast
CAKI-1 renal = tested on: CAKI-1 renal
CCRF-CEM leukemia = tested on: CCRF-CEM leukemia
COLO 205 colon = tested on: COLO 205 colon
DU-145 prostate = tested on: DU-145 prostate
EKVX NSCLC = tested on: EKVX NSCLC
HCT-116 colon = tested on: HCT-116 colon
HCT-15 colon = tested on: HCT-15 colon
HL-60(TB) leukemia = tested on: HL-60(TB) leukemia
HOP-62 NSCLC = tested on: HOP-62 NSCLC
HOP-92 NSCLC = tested on: HOP-92 NSCLC
HS 578T breast = tested on: HS 578T breast
HT29 colon = tested on: HT29 colon
IGROV1 ovarian = tested on: IGROV1 ovarian
K-562 leukemia = tested on: K-562 leukemia
KM12 colon = tested on: KM12 colon
LOX IMVI melanoma = tested on: LOX IMVI melanoma
M14 melanoma = tested on: M14 melanoma
MALME-3M melanoma = tested on: MALME-3M melanoma
MCF7 breast = tested on: MCF7 breast
MDA-MB-231 breast = tested on: MDA-MB-231 breast
MDA-MB-435 = tested on: MDA-MB-435
MDA-N = tested on: MDA-N
MOLT-4 leukemia = tested on: MOLT-4 leukemia
NCI-H226 lung = tested on: NCI-H226 lung
NCI-H23 lung = tested on: NCI-H23 lung
NCI-H460 lung = tested on: NCI-H460 lung
NCI-H522 lung = tested on: NCI-H522 lung
NCI/ADR-RES ovarian = tested on: NCI/ADR-RES ovarian
OVCAR-3 ovarian = tested on: OVCAR-3 ovarian
OVCAR-4 ovarian = tested on: OVCAR-4 ovarian
OVCAR-5 ovarian = tested on: OVCAR-5 ovarian
OVCAR-8 ovarian = tested on: OVCAR-8 ovarian
PC-3 prostate = tested on: PC-3 prostate
RXF 393 renal = tested on: RXF 393 renal
SF-268 CNS = tested on: SF-268 CNS
SF-295 CNS = tested on: SF-295 CNS
SF-539 CNS = tested on: SF-539 CNS
SK-MEL-2 melanoma = tested on: SK-MEL-2 melanoma
SK-MEL-28 melanoma = tested on: SK-MEL-28 melanoma
SK-MEL-5 melanoma = tested on: SK-MEL-5 melanoma
SK-OV-3 ovarian = tested on: SK-OV-3 ovarian
SN12C renal = tested on: SN12C renal
SNB-19 CNS = tested on: SNB-19 CNS
SNB-75 CNS = tested on: SNB-75 CNS
SR leukemia = tested on: SR leukemia
SW-620 colon = tested on: SW-620 colon
T-47D breast = tested on: T-47D breast
TK-10 renal = tested on: TK-10 renal
U251 CNS = tested on: U251 CNS
UACC-257 melanoma = tested on: UACC-257 melanoma
UACC-62 melanoma = tested on: UACC-62 melanoma
UO-31 renal = tested on: UO-31 renal
HCC-2998 colon = tested on: HCC-2998 colon
RPMI-8226 leukemia = tested on: RPMI-8226 leukemia

Question: Which results are given for `O=c1oc2cc(N=Cc3ccc4c(c3)OCO4)ccc2c2ccccc12`?
Answer: TGI (786-0 renal): > 100 µM; TGI (A498 renal): > 100 µM; TGI (A549 NSCLC): > 100 µM; TGI (ACHN renal): > 100 µM; TGI (BT-549 breast): > 100 µM; TGI (CAKI-1 renal): > 100 µM; TGI (CCRF-CEM leukemia): > 100 µM; TGI (COLO 205 colon): > 100 µM; TGI (DU-145 prostate): > 100 µM; TGI (EKVX NSCLC): 50.6 µM; TGI (HCT-116 colon): > 100 µM; TGI (HCT-15 colon): > 100 µM; TGI (HL-60(TB) leukemia): > 100 µM; TGI (HOP-62 NSCLC): > 100 µM; TGI (HOP-92 NSCLC): > 100 µM; TGI (HS 578T breast): > 100 µM; TGI (HT29 colon): > 100 µM; TGI (IGROV1 ovarian): > 100 µM; TGI (K-562 leukemia): > 100 µM; TGI (KM12 colon): > 100 µM; TGI (LOX IMVI melanoma): > 100 µM; TGI (M14 melanoma): > 100 µM; TGI (MALME-3M melanoma): > 100 µM; TGI (MCF7 breast): > 100 µM; TGI (MDA-MB-231 breast): > 100 µM; TGI (MDA-MB-435): > 100 µM; TGI (MDA-N): > 100 µM; TGI (MOLT-4 leukemia): > 100 µM; TGI (NCI-H226 lung): > 100 µM; TGI (NCI-H23 lung): > 100 µM; TGI (NCI-H460 lung): > 100 µM; TGI (NCI-H522 lung): > 100 µM; TGI (NCI/ADR-RES ovarian): > 100 µM; TGI (OVCAR-3 ovarian): > 100 µM; TGI (OVCAR-4 ovarian): > 100 µM; TGI (OVCAR-5 ovarian): > 100 µM; TGI (OVCAR-8 ovarian): > 100 µM; TGI (PC-3 prostate): > 100 µM; TGI (RXF 393 renal): 67.2 µM; TGI (SF-268 CNS): > 100 µM; TGI (SF-295 CNS): > 100 µM; TGI (SF-539 CNS): > 100 µM; TGI (SK-MEL-2 melanoma): > 100 µM; TGI (SK-MEL-28 melanoma): > 100 µM; TGI (SK-MEL-5 melanoma): > 100 µM; TGI (SK-OV-3 ovarian): > 100 µM; TGI (SN12C renal): > 100 µM; TGI (SNB-19 CNS): > 100 µM; TGI (SNB-75 CNS): 39.7 µM; TGI (SR leukemia): > 100 µM; TGI (SW-620 colon): > 100 µM; TGI (T-47D breast): > 100 µM; TGI (TK-10 renal): > 100 µM; TGI (U251 CNS): > 100 µM; TGI (UACC-257 melanoma): > 100 µM; TGI (UACC-62 melanoma): > 100 µM; TGI (UO-31 renal): > 100 µM

Question: Which TGI (786-0 renal) does the source give for `COC(=O)C(Cc1ccc(Oc2cc(CC(NC(=O)c3ccccc3)C(=O)OC)ccc2OC)cc1)NC(=O)c1ccccc1` (centres undefined) here?
Answer: Its TGI is 30 µM.

Question: What about the TGI (A498 renal) of the same molecule?
Answer: The TGI was over 100 µM.

Question: What about the TGI (A549 NSCLC) of the same molecule?
Answer: The TGI was over 100 µM.

Question: And the TGI (ACHN renal)?
Answer: The TGI was over 55 µM.

Question: What about the TGI (BT-549 breast) of the same molecule?
Answer: Its TGI is over 81.3 µM.

Question: And the TGI (CAKI-1 renal)?
Answer: Its TGI is over 100 µM.

Question: What about the TGI (COLO 205 colon) of the same molecule?
Answer: The TGI was over 73.2 µM.

Question: What about the TGI (DU-145 prostate) of the same molecule?
Answer: The TGI was over 50.3 µM.

Question: What about the TGI (EKVX NSCLC) of the same molecule?
Answer: The TGI was over 86.9 µM.

Question: What about the TGI (HCC-2998 colon) of the same molecule?
Answer: Its TGI is over 100 µM.

Question: And the TGI (HCT-116 colon)?
Answer: Its TGI is over 100 µM.

Question: And the TGI (HCT-15 colon)?
Answer: Its TGI is over 100 µM.

Question: What about the TGI (HL-60(TB) leukemia) of the same molecule?
Answer: The TGI was over 57.3 µM.

Question: And the TGI (HOP-62 NSCLC)?
Answer: Its TGI is over 100 µM.

Question: What about the TGI (HOP-92 NSCLC) of the same molecule?
Answer: The TGI was over 65.1 µM.

Question: And the TGI (HS 578T breast)?
Answer: Its TGI is 61.8 µM.

Question: And the TGI (HT29 colon)?
Answer: The TGI was over 100 µM.

Question: What about the TGI (IGROV1 ovarian) of the same molecule?
Answer: The TGI was over 100 µM.

Question: What about the TGI (K-562 leukemia) of the same molecule?
Answer: Its TGI is over 100 µM.

Question: And the TGI (KM12 colon)?
Answer: The TGI was over 100 µM.

Question: What about the TGI (LOX IMVI melanoma) of the same molecule?
Answer: The TGI was over 71.6 µM.

Question: What about the TGI (M14 melanoma) of the same molecule?
Answer: The TGI was 20.9 µM.

Question: What about the TGI (MALME-3M melanoma) of the same molecule?
Answer: Its TGI is 29.8 µM.

Question: What about the TGI (MCF7 breast) of the same molecule?
Answer: Its TGI is over 100 µM.

Question: What about the TGI (MDA-MB-231 breast) of the same molecule?
Answer: The TGI was over 78.8 µM.

Question: What about the TGI (MDA-MB-435) of the same molecule?
Answer: The TGI was over 63.5 µM.

Question: What about the TGI (MDA-N) of the same molecule?
Answer: Its TGI is 34 µM.

Question: And the TGI (MOLT-4 leukemia)?
Answer: Its TGI is over 100 µM.

Question: What about the TGI (NCI-H226 lung) of the same molecule?
Answer: The TGI was over 64.5 µM.

Question: And the TGI (NCI-H23 lung)?
Answer: Its TGI is over 82.2 µM.

Question: What about the TGI (NCI-H460 lung) of the same molecule?
Answer: Its TGI is over 100 µM.

Question: And the TGI (NCI-H522 lung)?
Answer: Its TGI is 27.2 µM.

Question: And the TGI (NCI/ADR-RES ovarian)?
Answer: The TGI was over 100 µM.

Question: What about the TGI (OVCAR-3 ovarian) of the same molecule?
Answer: The TGI was over 87.3 µM.

Question: What about the TGI (OVCAR-4 ovarian) of the same molecule?
Answer: The TGI was over 72.5 µM.

Question: And the TGI (OVCAR-5 ovarian)?
Answer: The TGI was over 100 µM.

Question: What about the TGI (OVCAR-8 ovarian) of the same molecule?
Answer: Its TGI is over 60.9 µM.

Question: What about the TGI (PC-3 prostate) of the same molecule?
Answer: Its TGI is over 85.8 µM.

Question: What about the TGI (RPMI-8226 leukemia) of the same molecule?
Answer: Its TGI is over 69.3 µM.

Question: And the TGI (RXF 393 renal)?
Answer: The TGI was 28.5 µM.

Question: What about the TGI (SF-268 CNS) of the same molecule?
Answer: Its TGI is 48.9 µM.

Question: What about the TGI (SF-295 CNS) of the same molecule?
Answer: The TGI was over 100 µM.

Question: What about the TGI (SF-539 CNS) of the same molecule?
Answer: Its TGI is over 60.2 µM.

Question: What about the TGI (SK-MEL-2 melanoma) of the same molecule?
Answer: Its TGI is over 74 µM.

Question: What about the TGI (SK-MEL-28 melanoma) of the same molecule?
Answer: The TGI was over 52.4 µM.

Question: What about the TGI (SK-MEL-5 melanoma) of the same molecule?
Answer: The TGI was 32.9 µM.

Question: And the TGI (SK-OV-3 ovarian)?
Answer: The TGI was over 100 µM.

Question: What about the TGI (SN12C renal) of the same molecule?
Answer: Its TGI is 21.3 µM.

Question: And the TGI (SNB-19 CNS)?
Answer: Its TGI is over 100 µM.

Question: And the TGI (SNB-75 CNS)?
Answer: Its TGI is over 100 µM.

Question: What about the TGI (SW-620 colon) of the same molecule?
Answer: Its TGI is over 100 µM.

Question: And the TGI (T-47D breast)?
Answer: Its TGI is over 51.4 µM.

Question: And the TGI (TK-10 renal)?
Answer: The TGI was over 59.8 µM.

Question: And the TGI (U251 CNS)?
Answer: The TGI was over 100 µM.

Question: And the TGI (UACC-257 melanoma)?
Answer: The TGI was 23.8 µM.

Question: And the TGI (UACC-62 melanoma)?
Answer: Its TGI is 42.7 µM.

Question: What about the TGI (UO-31 renal) of the same molecule?
Answer: The TGI was 24.2 µM.
